What was measured:
[1] = target: T1, human TLR9 (Homo sapiens, UniProt Q9NR96); experiment: TLR9 inhibition reporter assay (HEK-Blue cells, SEAP reporter, ODN2006 stimulation); format: cell-based; conditions: HEK-Blue cells overexpressing human TLR9, ODN2006 5 nM
T1 construct: host or cells: HEK-Blue cells
T1 sequence (Q9NR96 26-1032): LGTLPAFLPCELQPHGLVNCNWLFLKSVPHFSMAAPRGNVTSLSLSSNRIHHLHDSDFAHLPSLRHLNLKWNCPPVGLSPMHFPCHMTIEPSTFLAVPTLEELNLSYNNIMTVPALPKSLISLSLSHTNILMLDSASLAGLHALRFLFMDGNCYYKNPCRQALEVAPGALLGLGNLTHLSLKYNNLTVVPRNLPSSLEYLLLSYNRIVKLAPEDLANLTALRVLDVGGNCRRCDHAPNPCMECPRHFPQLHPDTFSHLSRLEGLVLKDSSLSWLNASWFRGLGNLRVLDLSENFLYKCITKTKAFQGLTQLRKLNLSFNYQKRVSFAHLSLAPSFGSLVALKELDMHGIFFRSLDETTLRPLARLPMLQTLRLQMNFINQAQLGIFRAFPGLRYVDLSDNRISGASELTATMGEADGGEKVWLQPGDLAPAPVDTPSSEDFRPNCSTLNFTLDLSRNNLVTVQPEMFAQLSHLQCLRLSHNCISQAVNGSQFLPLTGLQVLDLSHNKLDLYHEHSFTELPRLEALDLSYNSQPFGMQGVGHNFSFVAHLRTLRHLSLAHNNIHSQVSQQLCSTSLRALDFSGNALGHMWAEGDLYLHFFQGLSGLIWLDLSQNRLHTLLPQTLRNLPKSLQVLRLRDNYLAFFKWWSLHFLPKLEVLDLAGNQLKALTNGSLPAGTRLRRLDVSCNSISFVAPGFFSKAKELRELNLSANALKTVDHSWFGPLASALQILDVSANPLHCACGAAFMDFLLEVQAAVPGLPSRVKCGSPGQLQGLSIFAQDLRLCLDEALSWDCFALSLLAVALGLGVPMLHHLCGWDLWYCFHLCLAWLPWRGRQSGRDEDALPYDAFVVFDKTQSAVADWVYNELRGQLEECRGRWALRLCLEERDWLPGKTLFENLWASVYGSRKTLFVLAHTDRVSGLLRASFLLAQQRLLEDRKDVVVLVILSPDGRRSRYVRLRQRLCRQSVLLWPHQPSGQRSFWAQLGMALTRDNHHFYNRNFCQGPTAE
Procedure, shortened: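 Human TLR7/8/9 HEK-Blue reporter lines; dose range 0.05 nM–50 μM; 30 min RT preincubation; stimulus gardiquimod 7.5 μM / R848 15.9 μM / ODN2006 5 nM respectively; 22 h, 37 °C; SEAP detected colorimetrically.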

[2] = system: MRL/lpr model of Systemic Lupus Erythematosus; experiment: MRL/lpr model of systemic lupus erythematosus (SLE); format: in vivo, mouse; conditions: MRL/lpr mice, oral once daily 8 weeks
Protocol: MRL/Lpr Model of Systemic Lupus Erythematosus (SLE) Male MRL/lpr mice of 12-14 weeks age were screened and randomized based on the titers of anti-dsDNA antibodies and urinary NGAL (Neutrophil Gelatinase Associated Lipocalin). Mice were treated orally, once daily for 8 weeks with vehicle or test compound. The effect of test compound on disease severity was assessed by measuring end points including proteinuria, urinary-NGAL, anti-dsDNA Ab titer, and lymphadenopathy. These end points were assessed before the start of treatment and after 4 and 8 weeks of treatment. At the end of experiment, all mice were euthanized by CO2 asphyxiation and kidney samples were subjected for histology. At the end of experiment, one way ANOVA with Dunnett's test was performed to calculate the significance of test compound treated group vs. vehicle control group. Percent reduction in disease severity was calculated for each parameter, for test compound treated group vs vehicle control group. A cumulative disease score and the percent reduction in cumulative disease score was calculated by considering the average inhibition in all parameters except lymphadenopathy to reflect the impact on the overall severity of disease progression.

[3] = system: TLR9; experiment: In vivo mouse TLR9 PD model (CpG-ODN challenge, plasma IL-6); conditions: oral
Protocol: (§1) In Vivo Mouse TLR7 and TLR9 PD Model:
(§2) Adult male C57BL/6 mice were used for the experiments. Mice (7 to 10 per group) were randomized into different treatment groups based on body weight. Mice from the respective treatment groups were administered orally with vehicle or test compound. Thirty min after the oral administration of vehicle or test compound, mice were challenged with intraperitoneal injection of gardiquimod for TLR7 PD model and CpG-ODN for TLR9 PD model. Ninety minutes after gardiquimod injection and 120 minutes after CpG-ODN injection, mice were bled under isoflurane anaesthesia and plasma IL-6 level was estimated by using commercially available ELISA kit (BD Biosciences). At the end of experiment, mean cytokine data was plotted and one way ANOVA with Dunnett's test was performed to calculate the significance of test compound treated group vs. vehicle control group. Percent inhibition of cytokine induction was calculated for test compound treated group vs vehicle control group.

[4] = system: TLR7; experiment: In vivo mouse TLR7 PD model (gardiquimod challenge, plasma IL-6); conditions: oral
Protocol: as §1, §2

CNCCN1CCC(c2cc3c(C(C)C)c(-c4ccc(OC)c(OC)c4)[nH]c3cc2C)CC1 [Example 207, 2-(4-(2-(3,4-dimethoxyphenyl)-3-isopropyl-6-methyl-1H-indol-5-yl)piperidin-1-yl)-N-methylethan-1-amine]
IC50 [1]: 2290 nM

CNCCN1CCC(c2cc3c(C(C)C)c(-c4ccc(OC)c(OC)c4)[nH]c3cc2F)CC1 [Example 208, 2-(4-(2-(3,4-dimethoxyphenyl)-6-fluoro-3-isopropyl-1H-indol-5-yl)piperidin-1-yl)-N-methylethan-1-amine]
IC50 [1]: 374 nM

COc1ccc(-c2[nH]c3ccc(C4CCN(C(=O)CN(C)C)CC4)cc3c2C(C)C)cc1OC [Example 209, 1-(4-(2-(3,4-dimethoxyphenyl)-3-isopropyl-1H-indol-5-yl)piperidin-1-yl)-2-(dimethylamino)ethan-1-one]
IC50 [1]: 1660 nM
% inhibition Anti-dsDNA antibody titer ([2]; dose 1 mg/kg): 44%
% inhibition Cumulative score ([2]; dose 1 mg/kg): 42%
% inhibition IL-10 ([2]; dose 1 mg/kg): 10%
% inhibition IL-12p40 ([2]; dose 1 mg/kg): 13%
% inhibition Lymphadenopathy ([2]; dose 1 mg/kg): 35%
% inhibition Proteinuria ([2]; dose 1 mg/kg): 46%
% inhibition Urinary NGAL ([2]; dose 1 mg/kg): 36%
% inhibition Anti-dsDNA antibody titer ([2]; dose 2 mg/kg): 57%
% inhibition Cumulative score ([2]; dose 2 mg/kg): 55%
% inhibition IL-10 ([2]; dose 2 mg/kg): 22%
% inhibition IL-12p40 ([2]; dose 2 mg/kg): 24%
% inhibition Lymphadenopathy ([2]; dose 2 mg/kg): 38%
% inhibition Proteinuria ([2]; dose 2 mg/kg): 57%
% inhibition Urinary NGAL ([2]; dose 2 mg/kg): 52%
% inhibition Anti-dsDNA antibody titer ([2]; dose 5 mg/kg): 67%
% inhibition Cumulative score ([2]; dose 5 mg/kg): 61%
% inhibition IL-10 ([2]; dose 5 mg/kg): 36%
% inhibition IL-12p40 ([2]; dose 5 mg/kg): 18%
% inhibition Lymphadenopathy ([2]; dose 5 mg/kg): 50%
% inhibition Proteinuria ([2]; dose 5 mg/kg): 61%
% inhibition Urinary NGAL ([2]; dose 5 mg/kg): 54%
% inhibition Anti-dsDNA antibody titer ([2]; dose 7.5 mg/kg): 70%
% inhibition Cumulative score ([2]; dose 7.5 mg/kg): 67%
% inhibition IL-10 ([2]; dose 7.5 mg/kg): 36%
% inhibition IL-12p40 ([2]; dose 7.5 mg/kg): 27%
% inhibition Lymphadenopathy ([2]; dose 7.5 mg/kg): 58%
% inhibition Proteinuria ([2]; dose 7.5 mg/kg): 68%
% inhibition Urinary NGAL ([2]; dose 7.5 mg/kg): 62%
% inhibition of IL6 ([3]; dose 1 mg/kg): 29%
% inhibition of IL6 ([3]; dose 10 mg/kg): 37%
% inhibition of IL6 ([3]; dose 30 mg/kg): 37%
% inhibition of IL6 ([3]; dose 100 mg/kg): 51%
% inhibition of IL6 ([4]; dose 0.001 mg/kg): 11%
% inhibition of IL6 ([4]; dose 0.01 mg/kg): 21%
% inhibition of IL6 ([4]; dose 0.1 mg/kg): 61%
% inhibition of IL6 ([4]; dose 1 mg/kg): 86%

COc1ccc(-c2[nH]c3ccc(C4CCN(C(=O)CNCC(C)O)CC4)cc3c2C(C)C)cc1OC (stereo not shown) [Example 210, 1-(4-(2-(3,4-dimethoxyphenyl)-3-isopropyl-1H-indol-5-yl)piperidin-1-yl)-2-((2-hydroxypropyl)amino)ethan-1-one]
IC50 [1]: 1930 nM

COc1ccc(-c2[nH]c3ccc(C4CCN(C(=O)CN5CCC(N6CCCCC6)CC5)CC4)cc3c2C(C)C)cc1OC [Example 211, 2-([1,4′-bipiperidin]-1′-yl)-1-(4-(2-(3,4-dimethoxyphenyl)-3-isopropyl-1H-indol-5-yl)piperidin-1-yl)ethan-1-one]
IC50 [1]: 990 nM

COc1ccc(-c2[nH]c3ccc(C4CCN(C(=O)CNCCO)CC4)cc3c2C(C)C)cc1OC [Example 212, 1-(4-(2-(3,4-dimethoxyphenyl)-3-isopropyl-1H-indol-5-yl)piperidin-1-yl)-2-((2-hydroxyethyl)amino)ethan-1-one]
IC50 [1]: 1190 nM

COc1ccc(-c2[nH]c3ccc(C4CCN(C(=O)CNC5(CO)CCCC5)CC4)cc3c2C(C)C)cc1OC [Example 213, 1-(4-(2-(3,4-dimethoxyphenyl)-3-isopropyl-1H-indol-5-yl)piperidin-1-yl)-2-((1-(hydroxymethyl)cyclopentyl)amino)ethan-1-one]
IC50 [1]: 2070 nM

COc1ccc(-c2[nH]c3ccc(C4CCN(C(=O)CNCC#N)CC4)cc3c2C(C)C)cc1OC [Example 214, 2-((2-(4-(2-(3,4-dimethoxyphenyl)-3-isopropyl-1H-indol-5-yl)piperidin-1-yl)-2-oxoethyl)amino) acetonitrile]
IC50 [1]: ≥ 50000 nM

COc1ccc(-c2[nH]c3ccc(C4CCN(C(=O)CNC5CCC(N(C)C)CC5)CC4)cc3c2C(C)C)cc1OC (stereo not shown) [Example 215, 1-(4-(2-(3,4-dimethoxyphenyl)-3-isopropyl-1H-indol-5-yl)piperidin-1-yl)-2-((4-(dimethylamino)cyclohexyl)amino)ethan-1-one]
IC50 [1]: 2020 nM

COc1ccc(-c2[nH]c3ccc(C4CCN(C(=O)CNC56CC7CC(CC(C7)C5)C6)CC4)cc3c2C(C)C)cc1OC [Example 217, 2-(((3s,5s,7s)-adamantan-1-yl)amino)-1-(4-(2-(3,4-dimethoxyphenyl)-3-isopropyl-1H-indol-5-yl)piperidin-1-yl)ethan-1-one]
IC50 [1]: 2130 nM

COc1ccc(-c2[nH]c3ccc(C4CCN(C(=O)CNC56CC7CC(CC(O)(C7)C5)C6)CC4)cc3c2C(C)C)cc1OC [Example 218, 1-(4-(2-(3,4-dimethoxyphenyl)-3-isopropyl-1H-indol-5-yl)piperidin-1-yl)-2-(((1r,3s,5R,7S)-3-hydroxyadamantan-1-yl)amino)ethan-1-one]
IC50 [1]: 1280 nM

COc1ccc(-c2[nH]c3ccc(C4CCN(C(=O)CNCC(C)(C)CO)CC4)cc3c2C(C)C)cc1OC [Example 219, 1-(4-(2-(3,4-dimethoxyphenyl)-3-isopropyl-1H-indol-5-yl)piperidin-1-yl)-2-((3-hydroxy-2,2-dimethylpropyl)amino)ethan-1-one]
IC50 [1]: 2100 nM

COc1ccc(-c2[nH]c3ccc(C4CCN(C(=O)CNC(CO)CO)CC4)cc3c2C(C)C)cc1OC [Example 220, 2-((1,3-dihydroxypropan-2-yl)amino)-1-(4-(2-(3,4-dimethoxyphenyl)-3-isopropyl-1H-indol-5-yl)piperidin-1-yl)ethan-1-one]
IC50 [1]: 5580 nM
